Experimental data: US20050282889A1, “Intracorporeal medicaments for photodynamic treatment of disease” (priority 1996, published 2005)
One block for each compound: values may come before it.

Experiments:
[1] = Retention of agent after intratumoral or peritumoral injection
Experimental: Initially, tumor cell suspensions (e.g. melanoma, breast tumor, liver tumor, renal carcinoma, gall bladder tumor or prostate tumor) were injected subcutaneously into the flanks of nude mice resulting in formation of primary tumors, within a few weeks, at the injection site having a volume of approximately 0.1 cm^3 to 0.5 cm^3.

[2] = tested on: Renal Adenocarcinoma; experiment: Intratumoral injection plus light, murine tumor model; format: in vivo; conditions: for No. Tumors Cured: 4 treated
[3] = Photochemical quantum yields (triplet, singlet oxygen); format: physicochemical
[4] = Absorbance properties of halogenated xanthenes (λmax, α); format: physicochemical
Source text: Certain general properties of this class of agents are discussed in further detail in U.S. Ser. No. 09/130,041, filed on Aug. 6, 1998, U.S. Ser. No. 09/184,388, filed on Nov. 2, 1998, and U.S. Ser. No. 09/216,787, filed on Dec. 21, 1998, which are herein incorporated by reference in their entirety.

[5] = Partition coefficient Kp, n-octanol / phosphate buffered saline; format: physicochemical; conditions: ratio of equilibrium concentrations, n-octanol vs PBS pH=7.4
[6] = tested on: thyroid tumor; experiment: Intratumoral Rose Bengal plus green light; format: in vivo; conditions: approximately 10% W/V solution i.t.; green light 500-600 nm
[7] = tested on: lung tumor; experiment: Intratumoral Rose Bengal plus green light; format: in vivo; conditions: approximately 10% W/V solution i.t.; green light 500-600 nm
[8] = tested on: various yeasts; experiment: Photodynamic eradication of microbes; format: cell-based; conditions: aqueous solution approximately 1 to 10 micromolar; green light 500-600 nm
[9] = Serum level after per oesophageal administration; format: in vivo; conditions: approximately 10% W/V solution p.o.
[10] = tested on: Human Breast Adenocarcinoma (MCF-7); experiment: Intratumoral injection plus light, murine tumor model; format: in vivo; conditions: i.t. approx. 30 μL 10% solution, tumor 3 × 4 × 4 mm, 100 J/cm^2 532 nm
[11] = tested on: BNL/SV40 Liver Cell; experiment: as above; format: in vivo; conditions: i.t. approx. 30 μL 10% solution, tumor 8 × 10 × 5 mm, 50 J/cm^2 532 nm
[12] = tested on: esophageal tissue; experiment: Per oesophageal Rose Bengal plus green light on esophageal tissue; format: in vivo, canines; conditions: approximately 1.0% W/V solution p.o.; green light 500-600 nm
[13] = tested on: procaryotic or eucaryotic cell cultures; experiment: Dark and light cytotoxicity in cell cultures; format: cell-based; conditions: concentrations equivalent to or greater than 100 mg/kg
Source text: Further, the inventors of the present invention have shown that these agents are readily cleared from healthy tissues in a matter of several hours and are known to be rapidly excreted in bile, urine and feces, without doing damage to those healthy tissues while it was there.

[14] = tested on: cutaneous lipocytes; experiment: Systemic administration to obese mice: accumulation in and photodynamic destruction of cutaneous lipocytes; format: in vivo, obese laboratory mice
Source text: For example, Rose Bengal's relatively large partition coefficient is indicative of a preference for accumulation in lipophilic tissue, such as cutaneous lipocytes.

[15] = tested on: renal adenocarcinoma; experiment: Per oesophageal Rose Bengal plus 532 nm light, murine renal adenocarcinoma tumor model; format: in vivo, Balb C Nude (nu/nu) mice
[16] = tested on: prostate tumor; experiment: Intratumoral Rose Bengal plus green light; format: in vivo; conditions: approximately 10% W/V solution i.t.; green light 500-600 nm
[17] = tested on: tumor cell suspensions (e.g. melanoma, breast tumor, liver tumor, renal carcinoma, gall bladder tumor or prostate tumor); experiment: Photodynamic treatment of subcutaneous primary tumors in nude mice; format: in vivo
[18] = tested on: cutaneous tumors; experiment: Per oesophageal Rose Bengal plus green light, mice with cutaneous tumors; format: in vivo; conditions: approximately 10% W/V solution p.o.; green light 500-600 nm
[19] = tested on: Escherichia coli; experiment: Photodynamic eradication of microbes; format: cell-based; conditions: aqueous solution approximately 1 to 10 micromolar; green light 500-600 nm
[20] = tested on: antibiotic resistant Staphylococcus aureus; experiment: Photodynamic eradication of microbes; format: cell-based; conditions: aqueous solution approximately 1 to 10 micromolar; green light 500-600 nm
[21] = tested on: metastatic breast tumor; experiment: Intratumoral Rose Bengal plus green light; format: in vivo; conditions: approximately 10% W/V solution i.t.; green light 500-600 nm
[22] = No Light control, 0 J/cm^2, i.t. ICG medicament, tumor 3 × 4 × 5 mm
[23] = i.t. ICG medicament, tumor 3 × 4 × 5 mm, 50 J/cm^2 805 nm
[24] = No Light control, 0 J/cm^2, i.t. 10% solution, tumor 2 × 3 × 3 mm
[25] = i.t. approx. 30 μL 10% solution, tumor 2 × 3 × 3 mm, 100 J/cm^2 532 nm
[26] = i.t. approx. 30 μL 10% solution, tumor 5 × 8 × 8 mm, 100 J/cm^2 532 nm

- Tissue localization after i.t. administration ([1]; intratumoral injection (ICG: within 24 hours)): substantively migrated out of the tumor
Structure (SMILES): CC1(C)C(/C=C/C=C/C=C/C=C2\N(CCCCS(=O)(=O)O)c3ccc4ccccc4c3C2(C)C)=[N+](CCCCS(=O)(=O)[O-])c2ccc3ccccc3c21 [Indocyanine Green, reference compound]
- Cure Rate [2, 22]: 0%
- No. Tumors Cured [2, 22]: 0
- Cure Rate [2, 23]: 0%
- No. Tumors Cured [2, 23]: 0

Structure (SMILES): O=C([O-])c1c(Cl)c(Cl)c(Cl)c(Cl)c1-c1c2cc(Br)c(=O)c(Br)c-2oc2c(Br)c([O-])c(Br)cc12.[Na+].[Na+] [Phloxine B]
- φ (singlet oxygen) EtOH [3]: 0.63
- φ (singlet oxygen) H2O [3]: 0.40
- α [4]: 100000 L/cm/mol
- λmax (nm) EtOH [4]: 548 nm
- λmax (nm) H2O [4]: 541 nm
- λmax (nm) MeOH [4]: 547 nm
- Kp (partition coefficient) [5]: 1.1

- Injected dose remaining in the tumor ([1]; mouse, in vivo): more than 75%
- Serum levels of Rose Bengal [9]: transient elevation of serum levels
- Tissue accumulation after systemic administration ([14]; aqueous solution i.p. or p.o., cutaneous fat deposits of obese mice): highly selective accumulation
- φ (singlet oxygen) EtOH [3]: 0.75
- φ (singlet oxygen) H2O [3]: 0.86
- φ (singlet oxygen) MeOH [3]: 0.76
- φ (triplet) MeOH [3]: 0.76
- α [4]: 100000 L/cm/mol
- λmax (nm) EtOH [4]: 557 nm
- λmax (nm) H2O [4]: 547 nm
- λmax (nm) MeOH [4]: 556 nm
Structure (SMILES): O=C1OC2(c3cc(I)c(O)c(I)c3Oc3c2cc(I)c(O)c3I)c2c(Cl)c(Cl)c(Cl)c(Cl)c21 [Rose Bengal, 4,5,6,7-tetrachloro-2′,4′,5′,7′-Tetraiodofluorescein]
- Tumor response [6]: controlled, localized photodynamic eradication
- Tumor response [7]: controlled, localized photodynamic eradication
- Tissue localization after i.t. administration ([1]; mouse, in vivo): persistent accumulation and retention of Rose Bengal uniformly throughout the tumor volume
- Eradication of microbes [8]: substantial or complete eradication
- Cure Rate [10]: 100%
- No. Tumors Cured ([10]; 2 treated): 2
- Cure Rate [11]: 25%
- No. Tumors Cured ([11]; 8 treated, reoccurrence at 2-3 weeks): 2
- Tissue response in illuminated region [12]: controlled, localized photodynamic destruction of tissues in the treated region
- Light cytotoxicity: effect on cell cultures ([13]; light between about 500 nm and 600 nm): immediate and complete kill
- Dark cytotoxicity: effect on viability of cultures ([13]; no illumination): no measurable effect on the viability
- Photodynamic effect on lipocytes ([14]; illumination of skin at approximately 532 nm after systemic administration): selective photodynamic destruction of such lipocytes with no effect in overlying skin or underlying muscle tissue
- Cure Rate [2, 24]: 0%
- No. Tumors Cured [2, 24]: 0
- Cure Rate [2, 25]: 100%
- No. Tumors Cured [2, 25]: 4
- Cure Rate [2, 26]: 50%
- No. Tumors Cured [2, 26]: 2
- Cure Rate ([15]; 10% solution p.o. approx. 50 mg/kg, 100 J/cm^2 532 nm, latency 3 hr): 60% (3/5)
- No. Tumors With Positive Response ([15]; 10% solution p.o. approx. 50 mg/kg, 100 J/cm^2 532 nm, latency 3 hr, 5 tumors treated, eschar at tumor site 24 h after illumination): 3
- Cure Rate ([15]; 10% solution p.o. approx. 50 mg/kg, 100 J/cm^2 532 nm, latency 20 hr): 78% (7/9)
- No. Tumors With Positive Response ([15]; 10% solution p.o. approx. 50 mg/kg, 100 J/cm^2 532 nm, latency 20 hr, 9 tumors treated): 7
- Cure Rate ([15]; No Light control, 0 J/cm^2, p.o. approx. 50 mg/kg): 0% (0/2)
- No. Tumors With Positive Response ([15]; No Light control, 0 J/cm^2, p.o. approx. 50 mg/kg, 2 tumors treated): 0
- Damage in peritumoral tissues ([15]; p.o. approx. 50 mg/kg, tumor and peritumoral area illuminated, 100 J/cm^2 532 nm): eschar formation selectively at the tumor site. No damage was noted in peritumoral tissues. “No Light” and
- Tumor response [16]: controlled, localized photodynamic eradication
- Tumor response after p.o. administration and illumination ([17]; 10-30 μL of 10% solution (1-3 mg) p.o., 532 nm, 50-200 J/cm^2, 3-48 hours post administration): selective destruction of tumor tissue with no substantive effect in healthy surrounding tissue
- Tumor response after intratumoral injection and illumination ([17]; i.t., similar formulation, light at 532 nm): selective tumor destruction
- Tumor response [18]: substantial or complete photodynamic eradication
- Eradication of microbes [19]: substantial or complete eradication
- Eradication of microbes [20]: substantial or complete eradication
- Tumor response [21]: controlled, localized photodynamic eradication

- φ (singlet oxygen) EtOH [3]: 0.63
- φ (singlet oxygen) H2O [3]: 0.69
- φ (singlet oxygen) MeOH [3]: 0.62
- φ (triplet) MeOH [3]: 0.62
- α [4]: 91000 L/cm/mol
- λmax (nm) EtOH [4]: 532 nm
- λmax (nm) H2O [4]: 528 nm
- λmax (nm) MeOH [4]: 529 nm
- Kp (partition coefficient) [5]: 1.9
Structure (SMILES): O.O=C([O-])c1ccccc1-c1c2cc(I)c(=O)c(I)c-2oc2c(I)c([O-])c(I)cc12.[Na+].[Na+] [Erythrosin B]
